Laboratory results published in PMC10311661, “In Silico Discovery of 5′-Modified 7-Deoxy-7-ethynyl-4′-thioadenosine as a HASPIN Inhibitor and Its Synergistic Anticancer Effect with the PLK1 Inhibitor” (ACS Central Science, 2023).

Tests used:
Assay in all cases: KINOMEscan (scanMAX) competition binding at […], less than […] of control
Conditions in all cases: read-out: % of control at 100 nM
CLK2 = CLK2 (Homo sapiens, UniProt P49760)
DYRK1A = DYRK1A (Homo sapiens, UniProt Q13627)
MEK5 = molecular target: T1, MEK5 (Homo sapiens, UniProt Q13163)
T1 construct: gene MAP2K5
T1 sequence (Q13163 1-448): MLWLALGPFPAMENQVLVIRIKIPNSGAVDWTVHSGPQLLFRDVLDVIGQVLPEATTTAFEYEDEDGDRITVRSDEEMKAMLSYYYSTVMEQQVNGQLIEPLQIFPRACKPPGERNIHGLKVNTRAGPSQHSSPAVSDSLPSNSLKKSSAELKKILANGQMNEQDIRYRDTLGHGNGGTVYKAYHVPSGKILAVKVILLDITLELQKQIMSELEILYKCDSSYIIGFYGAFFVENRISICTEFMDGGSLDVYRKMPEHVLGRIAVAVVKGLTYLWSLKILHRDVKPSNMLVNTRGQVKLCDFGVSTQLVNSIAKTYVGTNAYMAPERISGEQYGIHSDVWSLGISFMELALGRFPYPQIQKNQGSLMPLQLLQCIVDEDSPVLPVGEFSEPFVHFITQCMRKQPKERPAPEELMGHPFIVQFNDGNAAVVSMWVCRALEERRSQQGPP

Measured: remaining binding at 0.1 µM

Sequence of CLK2 (P49760 whole entry): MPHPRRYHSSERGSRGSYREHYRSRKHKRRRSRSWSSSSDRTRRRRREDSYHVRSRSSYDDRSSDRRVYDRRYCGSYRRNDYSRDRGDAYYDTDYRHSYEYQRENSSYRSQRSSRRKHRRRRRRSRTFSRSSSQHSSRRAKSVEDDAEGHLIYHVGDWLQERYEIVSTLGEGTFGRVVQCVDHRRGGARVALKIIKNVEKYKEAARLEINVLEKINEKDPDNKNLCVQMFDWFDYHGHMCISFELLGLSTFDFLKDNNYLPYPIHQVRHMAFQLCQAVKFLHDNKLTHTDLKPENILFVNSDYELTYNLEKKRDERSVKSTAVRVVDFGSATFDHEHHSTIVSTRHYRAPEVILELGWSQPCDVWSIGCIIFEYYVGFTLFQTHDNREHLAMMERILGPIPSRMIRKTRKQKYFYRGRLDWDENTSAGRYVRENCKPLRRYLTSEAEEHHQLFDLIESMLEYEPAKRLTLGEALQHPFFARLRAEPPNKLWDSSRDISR

C#Cc1cn([C@@H]2S[C@H](CN=[N+]=[N-])[C@@H](O)[C@H]2O)c2ncnc(N)c12 [compound 7, LJ4827]
< 1%: all assays above
